Laboratory results reported in article PMC9140701, “Immunomodulatory Role of BLG-Derived Peptides Based on Simulated Gastrointestinal Digestion and DC-T Cell from Mice Allergic to Cow’s Milk” (Foods, 2022).
Ends that are not written are not given here.

Tests used:
Caco-2 cell monolayer = assay: Caco-2 monolayer transport (apparent permeability), normal and IL-1β-induced inflammation model; type: in vitro ADME, human; details: integrity check
Description: (§1) Caco-2 cells (a human colon adenocarcinoma cell line) were preserved in our lab and cultured in DMEM supplemented with 12% (v/v) FBS (FND500, ExCell Bio, Shanghai, China), 1% (v/v) L-glutamine, 1% (v/v) streptomycin–penicillin, and 1% (v/v) nonessential amino acids at 37 °C and 5% CO2. Caco-2 cells were seeded in 12-well Transwell plates at a density of 2 × 10^5 cells per well. On the 10th to 21st days, the transepithelial electrical resistance (TEER) of each well was detected using a Millicell ERS-2 V-ohm meter (Millipore, Boston, MA, USA). […] The protein profile of cow’s milk after simulated digestion was detected by (A) Tricine-SDS-PAGE. Lane 1: unstained low range protein ladder. Lane 2: pepsin. Lane 3: the cow’s milk. Lane 4: cow’s milk digested in the simulated adult gastrointestinal fluid for 0 min. Lane 5: cow’s milk digested in the simulated adult gastric fluid for 60 min. Lane 6: cow’s milk digested in the simulated adult gastrointestinal fluid for 60 min. Lane 7: cow’s milk digested in the simulated infant gastrointestinal fluid for 0 min. Lane 8: cow’s milk digested in the simulated infant gastric fluid for 60 min. Lane 9: cow’s milk digested in the infant simulated gastrointestinal fluid for 60 min. […] Y-axis value represents the occurrence numbers of amino acids of BLG peptides. (C) The whole amino acid sequence of BLG used in our study; the red letters indicate the areas where unique peptides are present after the simulated digestion of the infants, while the green letters represent unique peptides in the adults’ digestion. (D) The Papp of BLG peptides across Caco-;2 monolayers at 30 min, 1 h, 2 h, 3 h, and 4 h in the normal model and IL-1β-induced inflammation model, respectively. The data were calculated in three replicates. BLG, beta-lactoglobulin. Papp, apparent permeability coefficients.

[1] = as above; type: in vitro ADME, human; details: human; Caco-2 monolayer, 12-well Transwell, 21 days, TEER > 400 Ω × cm^2, from AP side, 37 °C; within 2 h, at the three time points; normal model and IL-1β-induced inflammation model; three replicates; read-out: apparent permeability coefficient (Papp)
Description: as §1

Papp A→B [1]	Compound	fluorescein sodium transport permeability (Caco-2 cell monolayer; Caco-2 monolayer after 21 days, normal mode)	fluorescein sodium transport permeability (Caco-2 cell monolayer; Caco-2 monolayer, inflammatory mode (IL-1β 10 ng/mL added on the 21st day, removed after 2 days))
	O=C([O-])c1ccccc1-c1c2ccc(=O)cc-2oc2cc([O-])ccc12.[Na+].[Na+] [fluorescein sodium, reference compound]	1.19 μg/h·cm^2	1.71 μg/h·cm^2
> 2 ×10⁻⁶ cm/s	LIVTQTMKGLDIQK [Peptide A1]		
> 2 ×10⁻⁶ cm/s	MAASDISLLDAQ [Peptide A2]		
> 2 ×10⁻⁶ cm/s	RVYVEELKPTPEGDLEILLQK [Peptide A3]		
